Laboratory results taken from patent US20210282378A1, “Mutant Mouse-Derived Pancreatic Organoid and Method for Evaluating Standardized Drug for Efficacy” (Seoul National University R&DB Foundation, priority 2018, published 2021).

Assays:
[1] = tested on: pancreatic organoids derived from BRCA2 gene-deleted mice (Brca2^F11/F11; CreER™); test: Drug responsiveness of pancreatic organoids with normal or exon 11-deleted BRCA2, observed with an inverted microscope; assay type: cell-based, mouse; conditions: alone or in combination with 200 nM TSA, with vs without BRCA2 exon 11 deletion, FIG. 6
Protocol: With reference to the method of Example 2 above, pancreatic organoids derived from BRCA2 gene-deleted mice (Brca2^F11/F11; CreER™) were prepared. To induce a partial deletion of BRCA2 gene (deletion of exon 11 of BRCA2 gene), 4-hydroxytamoxifen (4-OHT) was added to the organoids in an amount of 400 nM, and the resulting organoids were cultured for 3 weeks or more (see Example 2). For comparison, organoids not treated with 4-OHT (in which BRCA2 gene is normal) were also prepared.
Organoids having normal BRCA2 gene (not treated with 4-OHT) and organoids with a partial deletion of BRCA2 (exon 11 deletion) were seeded in equal amounts into 24-well plates. On the day after seeding, the organoids were treated with a mixture of the anticancer agent histone deacetylase inhibitor (HDACi) and a culture medium (see Example 2).
3 days after treatment (first treatment) with HDACi, the culture medium was replaced with a fresh medium, and treatment (second treatment) with each HDACi was performed again at the concentration shown in Table 3. Here, the primary treatment with HDACi was performed about 24 to 48 hours after seeding of the organoids, and 3 days after that, the second treatment was performed.

[2] = tested on: patient-derived organoids; test: p53 expression level by Western blot, patient-derived organoids; assay type: cell-based, human; conditions: two treatments 72 hours apart, day 5 after primary treatment; FIG. 15
Protocol: (§1) The mouse-derived organoids described in Examples 1 to 7 or patient-derived organoids were primarily treated with a drug, and after 72 hours, secondarily treated with the drug. As the drug, Resveratrone used in Examples 9 and 10 was used. On day 2 after the secondary drug treatment (day 5 after the primary drug treatment), the cell culture medium was removed, and then the cells were washed with 1 ml of PBS. After removal of PBS, the cells were mechanically dissociated with 500 μl of a recovery solution. The cell solution was agitated at 50 to 70 rpm at 4° C. for 1 hour, transferred into a microtube, and then centrifuged at 1200 rpm for 5 minutes, followed by removal of the supernatant. The remaining pellet was lysed with NETN buffer, and then sonicated using a sonicator for 1 minute with an output of 2 to 3 and centrifuged at 12,000 rpm for 20 to 30 minutes, and the supernatant was collected. The supernatant was quantified to 100 to 120 μg using Bradford assay, and then loaded onto a 10% polyacrylamide gel, followed by SD S-PAGE (Sodium Dodecyl Sulfate-Polyacrylamide gel electrophoresis) gel running. Then, the gel was transferred to a nitrocellulose membrane, and the transferred membrane was blocked with 5% skim milk while stirring at 50 rpm for 1 hour at RT. […]

[3] = tested on: mutant organoids (cancer-like); test: p53 expression level by Western blot, mutant organoids; assay type: cell-based, mouse; conditions: two treatments 72 hours apart, day 5 after primary treatment; FIG. 15
Protocol: as §1

[4] = tested on: mouse-derived normal organoids; test: p53 expression level by Western blot, normal organoids; assay type: cell-based; conditions: two treatments 72 hours apart, day 5 after primary treatment; FIG. 15
Protocol: as §1

[5] = tested on: pancreatic organoids from Kras^G12D mutant mice; assay type: cell-based, mouse; conditions: FIG. 14A
Protocol: The organoids were treated with 0 μM, 200 μM or 500 μM of the drug, followed by analysis of GFP (see FIG. 14A).

[6] = tested on: normal pancreatic organoids; test: Effect of Resveratrone on normal organoids; assay type: cell-based, mouse; conditions: 0, 200 or 500 μM
Protocol: Pancreatic tissue isolated from the genetically mutated mice described in Examples 1 to 7 above was dissociated. Cell pellets containing ductal cells were collected from the dissociated pancreatic tissue. The collected cell pellets were grown with a biomatrix in a cell incubator at 37° C. under 5% CO2. Thereafter, the produced organoids were grown in an organoid culture medium until 75% or more thereof grew to a diameter of 200 to 500 μm. […] The organoids were treated with a drug diluted in an organoid culture medium. […] As a result of the measurement, it could be confirmed that, when the above-described drug treatment method was used, it was possible to track the drug responsiveness of each organoid, which was a limitation of a conventional drug screening method using organoids, and drug treatment in a uniform size state was possible. […] As the maximum value of the average diameter of the collected organoids increases, the difference in size (average diameter) between the organoids included increases, so that the difference in responsiveness to the same drug between the organoids increases. Thus, in order to obtain a uniform drug responsiveness result, it is important to determine the upper limit of the size (average diameter) of the organoids. […]

CC[C@@H]1C(=O)N(C)c2cnc(Nc3ccc(C(=O)NC4CCN(C)CC4)cc3OC)nc2N1C1CCCC1 [BI2536]
responsiveness to the tested drugs (state of the organoids) ([1]; 10 nM): did differ depending on the presence or absence of the BRCA2 gene

CC(=O)/C=C/c1ccc2cc(O)cc(O)c2c1 [Resveratrone]
expression level of p53, normal vs cancer tendency [2]: this tendency was also found in the patient-derived organoids | expression level of p53 [3]: did not increase | expression level of p53 [4]: increased | GFP / green fluorescence of dying cells ([5]; 200 μM): exhibited fluorescence | GFP / cell death ([5]; 500 μM): cell death occurred and GFP decreased | effect of the drug on normal pancreatic organoids [6]: no effect

O=C(c1cc(Cc2n[nH]c(=O)c3ccccc23)ccc1F)N1CCN(C(=O)C2CC2)CC1 [Olaparib]
responsiveness to the tested drugs (state of the organoids) ([1]; 10 μM): did differ depending on the presence or absence of the BRCA2 gene
